Source: PubChem BioAssay (NCI)
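These data come from cells grown in 96-well plates and exposed to compound for 48 hours at five concentrations. Here, GI50 denotes the concentration required for 50% inhibition of growth. TGI denotes the concentration required for complete inhibition of growth.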

Columns and labels:
Experiment in all cases: DTP human tumour cell line panel, 48 h
SW-620 colon = test system: SW-620 colon
DLD-1 colon = test system: DLD-1 colon
SNB-75 CNS = test system: SNB-75 CNS
SK-MEL-5 melanoma = test system: SK-MEL-5 melanoma
KM12 colon = test system: KM12 colon
HL-60(TB) leukemia = test system: HL-60(TB) leukemia
NCI-H522 lung = test system: NCI-H522 lung
MOLT-4 leukemia = test system: MOLT-4 leukemia
EKVX NSCLC = test system: EKVX NSCLC
DMS 114 small cell lung = test system: DMS 114 small cell lung

Row | SMILES | GI50 (SW-620 colon) | TGI (SW-620 colon) | GI50 (DLD-1 colon) | TGI (DLD-1 colon) | GI50 (SNB-75 CNS) | TGI (SNB-75 CNS) | GI50 (SK-MEL-5 melanoma) | TGI (SK-MEL-5 melanoma) | GI50 (KM12 colon) | TGI (KM12 colon) | GI50 (HL-60(TB) leukemia) | TGI (HL-60(TB) leukemia) | GI50 (NCI-H522 lung) | TGI (NCI-H522 lung) | GI50 (MOLT-4 leukemia) | TGI (MOLT-4 leukemia) | GI50 (EKVX NSCLC) | TGI (EKVX NSCLC) | TGI (DMS 114 small cell lung)
1 | O=S(=O)(O)O.[NH-]C1CCCCC1[NH-].[Pt+2] (configuration not stated) | 5.33 µM | > 100 µM | 27.8 µM | > 100 µM | 0.722 µM | 61.5 µM | 42.3 µM | > 100 µM | > 100 µM | > 100 µM | 19.3 µM | > 100 µM | 23.6 µM | > 100 µM | 8.95 µM | > 100 µM | > 100 µM | > 100 µM | 
2 | COc1cc(NS(C)(=O)=O)ccc1Nc1c2ccc(Cl)cc2nc2c(OC)cccc12 | 0.0799 µM | 2.17 µM |  |  | 0.0966 µM | 1.59 µM | 0.129 µM | 3.97 µM | 0.268 µM | 1.81 µM | 0.0313 µM | 1.3 µM | 0.222 µM | 2.12 µM |  | 2.15 µM | 6.2 µM | 26.7 µM | 
3 | C/C(CC(=O)Nc1ccc(Cl)c(Cl)c1)=N/NC(=O)C[n+]1ccccc1 |  |  |  |  |  |  |  | > 100 µM |  | > 100 µM |  | > 100 µM |  | > 100 µM |  | > 100 µM |  | > 100 µM | 66.1 µM
4 | O=c1c2cccc(Cl)c2sc2c(NCCCNCCO)nc3ccccc3c12 | 1.41 µM | 2.95 µM |  |  | 7.69 µM | 22 µM | 6.5 µM | 21 µM | 1.87 µM | 3.73 µM | 2.4 µM | 5.49 µM | 1.99 µM | 4.42 µM | 2.12 µM | 5.19 µM | 3.4 µM | 17.5 µM | 
5 | c1ccc(Cn2cc3c(c2-c2ccccc2)CCc2cnoc2-3)cc1 | 3.15 µM | 53.9 µM |  |  | 3.27 µM | 63.4 µM | 2.79 µM | 12.8 µM | 3.27 µM | 47 µM | 1.75 µM | 4.09 µM | 3.04 µM | > 100 µM | 2.19 µM | 6.98 µM | 5.53 µM | > 100 µM | 
6 | COc1ccc2c(c1)c(-c1ccc(-c3cn(S(=O)(=O)c4ccccc4)c4ccc(OC)cc34)s1)cn2S(=O)(=O)c1ccccc1 | > 100 µM | > 100 µM |  |  | > 100 µM | > 100 µM | > 100 µM | > 100 µM | > 100 µM | > 100 µM | > 100 µM | > 100 µM | > 100 µM | > 100 µM | > 100 µM | > 100 µM | > 100 µM | > 100 µM | 
7 | CC[C@@H](C(=O)[C@@H](C)[C@@H](O)[C@H](C)[C@@H]1O[C@@H]([C@@H](CC)C(=O)O)CC[C@@H]1C)C1O[C@]2(C=CC(=O)[C@]3(CC[C@@](C)([C@H]4CC[C@](O)(CC)[C@H](C)O4)O3)O2)[C@H](C)C[C@@H]1C (some centres not stated) | 0.827 µM | 12.8 µM |  |  | 1.21 µM | 7.12 µM | 0.0658 µM | 0.232 µM | 0.515 µM | 6 µM | 0.0399 µM | 0.332 µM | 0.052 µM | 3.64 µM | 1.42 µM | 6.3 µM | 0.538 µM | 18.7 µM | 
8 | CCN(CC)CCCC(C)Nc1cnc(C(=O)Nc2ccc(Cl)c3cccnc23)cn1 (configuration not stated) | 2.09 µM | 4.74 µM |  |  | 3.18 µM | 15.1 µM | 1.8 µM | 3.31 µM | 3.79 µM | 13.3 µM | 1.77 µM | 3.54 µM | 2.07 µM | 4.34 µM | 1.33 µM | 3.3 µM | 3.98 µM | 17.2 µM | 
9 | C/C=C(\C)C(=O)N[C@H]1CC[C@]2(C)C3CC[C@@]4(C)C(CC[C@@H]4C(C)N(C)C)C3CCC2[C@H]1OC(C)=O (some centres not stated) | 1.53 µM | 3.05 µM |  |  | 1.65 µM | 3.59 µM | 1.05 µM | 2.3 µM | 2 µM | 5.15 µM | 1.88 µM | 4.52 µM | 2.14 µM | 5.24 µM | 1.58 µM | 3.91 µM | 2.06 µM | 8.62 µM | 
10 | Cc1nn(-c2nc3ccccc3s2)c(C)c1Oc1ccccc1O | 4.79 µM | 17.6 µM |  |  | 1.73 µM | 24.3 µM | 1.3 µM | 15.3 µM | 6.99 µM | 20.1 µM | 4.02 µM | 18.1 µM | 5.4 µM | 28.9 µM | 2.56 µM | 12.5 µM | 10.4 µM | 22.3 µM | 
